Experimental data as given in patent publication US10196362B2, “Carbamate compound and use thereof” (SUMITOMO CHEMICAL COMPANY, LIMITED, priority 2015, dated 2019).

Experiments:
[1] = tested on: wheat speckled leaf blotch fungus (Septoria tritici); assay: Test Example 5: wheat speckled leaf blotch, foliar spray pot test; assay type: in vivo; conditions: wheat (Apogee), 500 ppm foliar spray, Formulation Example 6, inoculated after 4 days
[2] = tested on: soybean rust (Phakopsora pachyrhizi); assay: Test Example 7: soybean rust, foliar spray pot test; assay type: in vivo; conditions: soybean (Kurosengoku), 200 ppm foliar spray, Formulation Example 6, inoculated after 4 days

Row | Structure (SMILES) | area of the lesion on treated plant relative to untreated plant [1] | area of the lesion on treated plant relative to untreated plant [2]
1 | COC(=O)N(OC)c1ccccc1COc1ccc(-n2nc(C)cc2C)cc1C [methyl N-(2-{[2-methyl-4-(3,5-dimethyl-1H-pyrazol-1-yl)phenoxy]methyl}phenyl)-N-methoxy carbamate] | ≥ 70% | 
2 | COC(=O)Nc1ccccc1COc1ccc(-n2cccn2)cc1 [methyl N-(2-{[4-(1H-pyrazol-1-yl)phenoxy)methyl}phenyl)carbamate] |  | ≥ 70%
